From ChEMBL document CHEMBL1139156, “Novel naphthyridines are histamine H3 antagonists and serotonin reuptake transporter inhibitors” (Bioorg Med Chem Lett, 2007) come the findings set out here.

Data set [1] concerns the target T1, Histamine H3 receptor (Homo sapiens, UniProt Q9Y5N1). Briefly: Antagonist activity at human histamine H3 receptor expressed in SK-N-MC cells assessed as effect on cAMP accumulation. The format is functional, cell-based. The following applies: read-out: pA2 (converted). For orientation: cAMP levels reflect the balance of adenylyl cyclase and phosphodiesterase activity.

Data set [2] concerns the target Sodium-dependent serotonin transporter (Rattus norvegicus, UniProt P31652). The data set can be described thus: Binding affinity to rat SERT.
Data set [3] concerns the target T1, Histamine H3 receptor. The data set can be described thus: Displacement of N-[3H]alpha-methylhistamine from human histamine H3 receptor expressed in SK-N-MC cells. The format is cell-based.
The target of data set [4] is Sodium-dependent serotonin transporter (Homo sapiens, UniProt P31645). Briefly: Binding affinity to human SERT.
Data set [5] in a line: Cmax in rat brain at 10 mg/kg, po after 6 hrs. The format is ADME, organism-based. Further details: dose 10 mg/kg, route oral.
A short description of data set [6]: Cmax in rat plasma at 10 mg/kg, po after 1 hr. The format is ADME, organism-based. Further details: dose 10 mg/kg, route oral.
Data set [7] can be described thus: Drug level in rat brain at 10 mg/kg, po after 24 hrs. In kind it is ADME, organism-based. Further details: dose 10 mg/kg, route oral. Conditions: read-out: Drug uptake.

T1 sequence (Q9Y5N1 whole entry): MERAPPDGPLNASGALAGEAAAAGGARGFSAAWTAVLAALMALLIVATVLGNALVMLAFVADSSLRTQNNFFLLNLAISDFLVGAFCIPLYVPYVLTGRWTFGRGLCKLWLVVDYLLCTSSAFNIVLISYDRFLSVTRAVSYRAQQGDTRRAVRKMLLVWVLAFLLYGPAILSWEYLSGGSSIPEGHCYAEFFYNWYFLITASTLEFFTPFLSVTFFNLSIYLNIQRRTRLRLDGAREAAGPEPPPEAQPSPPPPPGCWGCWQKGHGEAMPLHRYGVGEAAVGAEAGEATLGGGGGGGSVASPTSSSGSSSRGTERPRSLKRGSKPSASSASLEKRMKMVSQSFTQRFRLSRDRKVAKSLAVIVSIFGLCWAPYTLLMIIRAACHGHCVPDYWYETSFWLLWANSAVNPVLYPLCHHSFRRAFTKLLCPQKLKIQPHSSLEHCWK
Sodium-dependent serotonin transporter (Homo sapiens, UniProt P31645), sequence (P31645 whole entry): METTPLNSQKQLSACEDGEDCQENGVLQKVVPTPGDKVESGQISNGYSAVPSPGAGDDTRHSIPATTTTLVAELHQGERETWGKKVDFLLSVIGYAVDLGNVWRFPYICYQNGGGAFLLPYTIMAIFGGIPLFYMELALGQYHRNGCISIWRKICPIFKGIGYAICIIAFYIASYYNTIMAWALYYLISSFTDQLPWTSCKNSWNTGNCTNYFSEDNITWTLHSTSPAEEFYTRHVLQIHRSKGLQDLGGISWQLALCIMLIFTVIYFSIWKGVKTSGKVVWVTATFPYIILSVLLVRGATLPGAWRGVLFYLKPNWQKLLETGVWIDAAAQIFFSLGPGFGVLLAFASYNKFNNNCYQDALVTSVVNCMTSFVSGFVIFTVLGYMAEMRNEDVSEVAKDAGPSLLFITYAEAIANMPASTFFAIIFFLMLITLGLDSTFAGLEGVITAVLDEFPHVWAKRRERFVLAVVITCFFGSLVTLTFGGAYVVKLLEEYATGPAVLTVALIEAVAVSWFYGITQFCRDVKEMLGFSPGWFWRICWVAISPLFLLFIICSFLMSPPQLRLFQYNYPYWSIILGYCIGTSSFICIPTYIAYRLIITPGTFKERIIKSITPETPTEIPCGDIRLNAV
Sodium-dependent serotonin transporter (Rattus norvegicus, UniProt P31652), sequence (P31652 whole entry): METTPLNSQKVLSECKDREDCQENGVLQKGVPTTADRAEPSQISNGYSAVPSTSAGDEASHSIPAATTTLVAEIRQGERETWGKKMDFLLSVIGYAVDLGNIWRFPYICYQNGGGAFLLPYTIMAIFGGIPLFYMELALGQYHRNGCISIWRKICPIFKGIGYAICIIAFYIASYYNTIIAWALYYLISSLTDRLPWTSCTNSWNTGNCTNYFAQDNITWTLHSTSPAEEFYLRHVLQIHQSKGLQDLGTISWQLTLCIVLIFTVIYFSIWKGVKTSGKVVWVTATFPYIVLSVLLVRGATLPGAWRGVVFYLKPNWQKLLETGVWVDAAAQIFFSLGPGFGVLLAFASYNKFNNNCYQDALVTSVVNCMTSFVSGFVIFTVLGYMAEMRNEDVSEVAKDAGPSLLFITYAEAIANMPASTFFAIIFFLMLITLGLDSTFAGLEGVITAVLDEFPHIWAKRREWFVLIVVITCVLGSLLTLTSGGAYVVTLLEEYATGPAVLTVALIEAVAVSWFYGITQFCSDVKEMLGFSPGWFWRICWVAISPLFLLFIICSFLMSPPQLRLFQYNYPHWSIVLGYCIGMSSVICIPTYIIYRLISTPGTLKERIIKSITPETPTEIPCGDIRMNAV

For the molecule `COc1cccc(C2CN(C)Cc3cc(OCCCN4CCCCC4)ncc32)c1` (centres undefined), at Histamine H3 receptor [1], the Kb is 25.7 nM. As to `COc1ccc(C2CNCc3cc(OCCCN4CCCCC4)ncc32)cc1` (centres undefined), in data set [2], the inhibition constant (Ki) stood at 46 nM. The Kb at Histamine H3 receptor [1] is 5.89 nM. In the case of `CN1Cc2cc(OCCCN3CCCCC3)ncc2C(c2ccc(F)cc2)C1` (centres undefined), the Kb at Histamine H3 receptor [1] is 3.55 nM. The same measure, in the same setting: as for `Clc1ccc(C2CNCc3cc(OCCCN4CCCCC4)ncc32)cc1` (centres undefined), the figure is 3.89 nM; as for `CN1Cc2cc(OCCCN3CCCCC3)ncc2C(c2ccccc2)C1` (centres undefined), 21.4 nM. On the same count and under the same terms, the value for `c1ccc(C2CNCc3cc(OCCCN4CCCCC4)ncc32)cc1` (centres undefined) was 0.724 nM; that for `CN1Cc2cc(OCCCN3CCCCC3)ncc2C(c2ccccc2F)C1` (centres undefined) was 1.05 nM; that for `Clc1ccccc1C1CNCc2cc(OCCCN3CCCCC3)ncc21` (centres undefined) was 1.05 nM. As to `CN1Cc2cc(OCCCN3CCCCC3)ncc2C(c2ccc(Cl)c(F)c2)C1` (centres undefined), the Ki at Histamine H3 receptor [3] worked out at 7 nM; in data set [4] it was 147 nM; in data set [2], 26 nM. Also, the Kb at Histamine H3 receptor [1] was 16.6 nM. On to `CCN(CC)CCCOc1cc2c(cn1)C(c1ccc(Cl)c(Cl)c1)CNC2` (centres undefined), for which, on Histamine H3 receptor [1], the Kb was 14.1 nM. `CCN(CC)CCCOc1cc2c(cn1)C(c1ccccc1)CN(C)C2` (centres undefined): the Kb at Histamine H3 receptor [1] is 0.661 nM.

`COc1ccc(C2CN(C)Cc3cc(OCCCN4CCOCC4)ncc32)cc1` (centres undefined): the Kb at Histamine H3 receptor [1] is 11.7 nM. Consider `CC(C)N1CCC(COc2cc3c(cn2)C(c2ccc(Cl)c(Cl)c2)CNC3)CC1` (centres undefined), for which the Ki is 13 nM at Histamine H3 receptor [3], 37 nM in data set [4] and 18 nM in data set [2].

As for `COc1ccc(C2CNCc3cc(OCC4CCN(C(C)C)CC4)ncc32)cc1` (centres undefined), the Kb at Histamine H3 receptor [1] is 3.55 nM. Same read-out and setting: the value for `CN1Cc2cc(OCCCN3CCCCC3)ncc2C(c2ccc(Cl)c(Cl)c2)C1` (centres undefined) was 18.2 nM. `c1ccc(C2CNCc3cc(OCCCN4CCOCC4)ncc32)cc1` (centres undefined): the Cmax in data set [5] was 5560 nM; in data set [6], 220 nM. In addition, the Ki on Histamine H3 receptor [3] was determined as 13 nM; in data set [4], 4770 nM. For the same molecule, in data set [7], the concentration at 24 h is > 600 nM. As to `CN1Cc2cc(OCCCN3CCCCC3)ncc2C(c2cccc(Cl)c2)C1` (centres undefined), on Histamine H3 receptor [1], the Kb was 9.77 nM. With `Clc1ccc(C2CNCc3cc(OCCCN4CCCCC4)ncc32)cc1Cl` (centres undefined), in data set [4], the Ki was 32 nM. Besides, on Histamine H3 receptor [1], the Kb is 11.2 nM.

Broadly, the Ki is the equilibrium dissociation constant of an inhibitor or competing ligand from its target. A higher Ki goes with weaker binding. As a reminder, the Cmax is the maximum level reached in the sampled fluid or tissue.
